A short description of data set [1]: Intrinsic clearance in human liver microsomes. Format: ADME, Microsome.
Data set [2] is described as follows: Bioavailability in rat at 1 mg/kg, po and iv. Format: ADME, organism-based. The following applies: in vivo.
Data set [3] is described as follows: Lipophilicity, log D of the compound at pH 7.4. Format: physicochemical. As to conditions: buffer.
The nature of data set [4]: Half life in rat. Format: ADME, organism-based. As to conditions: in vivo.
Data set [5] is described as follows: Blood clearance in rat. Format: ADME, organism-based. As to conditions: whole blood.
Another data set in a line: in vivo. The following applies: rat, brain and plasma.

Each structure is given as a SMILES string. Where only a bound is given, the exact number is not on record here.

For `CC(C)[C@]1(C(=O)N2CCN(c3cc(C(F)(F)F)cnn3)CC2)CC[C@@H](NC2C3CCCC2COC3)C1` (stereo in doubt; 27), the microsomal CLint in data set [1] amounted to 58 µL/min/mg.
In data set [1], `CO[C@@H]1COCC[C@@H]1N[C@@H]1CC[C@@](C(=O)N2CCN(c3cc(C(F)(F)F)cnn3)CC2)(C(C)C)C1` returned an intrinsic metabolic clearance (microsomal CLint) of under 7 µL/min/mg. The bioavailability in data set [2] was determined as 50%. Moreover, the logD in data set [3] was 0.5.
For the compound `CO[C@@H]1COCC[C@@H]1N(C)[C@@H]1CC[C@@](C(=O)N2CCN(c3cc(C(F)(F)F)ccn3)CC2)(C(C)C)C1`, the microsomal CLint in data set [1] was found to be 58 µL/min/mg.
`CO[C@@H]1COCC[C@@H]1N[C@@H]1CC[C@@](C(=O)N2CCN(c3cc(C(F)(F)F)ccn3)CC2)(C(C)C)C1`: in data set [4], the half-life was 3.9 h. Besides, the microsomal CLint in data set [1] worked out at 9.3 µL/min/mg. For the same compound, the clearance in data set [5] was 33.8 mL/min/kg. This compound returned a Kp in “in vivo” of 3.
On to `CO[C@@H]1COCC[C@@H]1N[C@@H]1CC[C@@](C(=O)N2CCN(c3ccnc(C(F)(F)F)c3)CC2)(C(C)C)C1`, for which the microsomal CLint in data set [1] is under 7 µL/min/mg. This compound came in with a pH-dependent lipophilicity (logD) in data set [3] of 0.7.
As for `CC(C)[C@]1(C(=O)N2CCN(c3cc(C(F)(F)F)ccn3)CC2)CC[C@@H](N2CCC3COCCC32)C1` (stereo in doubt; 22), the microsomal CLint in data set [1] is under 7 µL/min/mg.

What is called microsomal CLint is a measure of how fast metabolising enzymes remove a compound, apart from limits set by blood flow. Higher therefore signals rapid turnover. A word on the bioavailability: it is the share of a dose that reaches the circulation, judged against a reference dose that is usually intravenous. A low value points to little systemic uptake. In general, logD refers to the decadic logarithm of the distribution of all forms, ionised or not, between an organic phase and buffer at a given pH. What is called half-life is the time needed for the level to fall by half in the phase considered. Read a high half-life as slow loss. One may read the clearance as the volume of plasma or blood freed of the substance per unit of time. A lower clearance goes with inefficient removal. Usually Kp stands for the ratio of the level in a tissue or fluid to that in plasma or blood.
